Data: paper PMC4370687, “Functional Characterization of the 1,5-Benzodiazepine Clobazam and Its Major Active Metabolite N-Desmethylclobazam at Human GABAA Receptors Expressed in Xenopus laevis Oocytes” (PLoS ONE, 2015)

Legend:
Assay in all cases: GABA concentration-response, TEVC electrophysiology in Xenopus oocytes
Type in all cases: cell-based
Settings in all cases: GABA as agonist
human α2β2γ2S GABAAR = target: T1, human α2β2γ2S GABAAR (Homo sapiens, UniProt P18507+P47869+P47870)
T1 construct: expressed in transfected cells; host or cells: Xenopus laevis oocytes (cRNA injection, α:β2:γ2S 1:1:1; 1:1:5 in the zolpidem comparison)
Description: (§1) The cDNAs encoding the human GABAAR subunits were linearized with DraIII (α1, α2, α3, α5 and α6), SmaI (β2 and γ2S) or StuI (δ) and used as templates for in vitro cRNA synthesis using the T7 mMESSAGE mMACHINE High Yield Capped RNA Transcription Kit (Life Technologies Corporation, Carlsbad, CA, USA). Except where otherwise indicated, Xenopus oocytes were injected with 36.8 nL cRNA solution encoding for α1β2γ2S, α2β2γ2S, α3β2γ2S and α5β2γ2S GABAARs in a 1:1:1 α:β2:γ2S ratio (2.7 ng/μL of each subunit), with 46 nL cRNA solution encoding for the α6β2δ GABAAR in a 10:1:10 α6:β2:δ ratio (1:0.1:1 μg/μL), with 18 nL cRNA solution encoding for the α1β2 GABAAR in a 1:1 α1:β2 ratio (0.6:0.6 μg/μL), or with 46 nL cRNA encoding for α6β2 (α6:β2 ratio: 1:0.1 μg/μL). Following injection, the oocytes were incubated at 18°C in modified Barth’s solution [88 mM NaCl, 1 mM KCl, 15 mM HEPES (pH 7.5), 2.4 mM NaHCO3, 0.41 mM CaCl2, 0.82 mM MgSO4, 0.3 mM Ca(NO3)2, 100 U/mL penicillin and 100 μg/mL streptomycin]. Electrophysiological recordings were performed 3 to 6 days after injection.
(§2) Electrophysiological recordings were performed using the TEVC technique on Xenopus oocytes expressing various GABAAR combinations using a protocol adapted from previous studies. […] Cells were impaled with agar-plugged 0.5–1 MΩ electrodes containing 3 M KCl and voltage clamped at −70 mV by a Gene Clamp 500B amplifier (Axon Instruments, Union City, CA, USA) and recorded with pClamp 10 (Windows version, Molecular Devices, LLC, Sunnyvale, CA, USA). The oocytes were continuously perfused with Ringer buffer, and the test compounds were applied in the perfusate. Experiments were performed at room temperature and each data point represents the mean ± S.E.M. value of recordings performed on at least two oocytes from at least two different batches of oocytes. The recorded baseline-to-peak current amplitudes were analyzed using Clampfit 10.1 (Axon Instruments, Union City, CA, USA). […]

human α3β2γ2S GABAAR = target: T2, human α3β2γ2S GABAAR (Homo sapiens, UniProt P18507+P34903+P47870)
T2 construct: expressed in transfected cells; host or cells: Xenopus laevis oocytes (cRNA injection, 1:1:1)
Description: as §1, §2

human α5β2γ2S GABAAR = target: T3, human α5β2γ2S GABAAR (Homo sapiens, UniProt P18507+P31644+P47870)
T3 construct: expressed in transfected cells; host or cells: Xenopus laevis oocytes (cRNA injection, 1:1:1)
Description: as §1, §2

human α6β2 GABAAR = target: T4, human α6β2 GABAAR (Homo sapiens, UniProt P47870+Q16445)
T4 construct: expressed in transfected cells; host or cells: Xenopus laevis oocytes (cRNA injection)
Description: as §1, with “Following injection, the oocytes were incubated at 18°C in modified Barth’s solution [88 mM NaCl, 1 mM KCl, 15 mM HEPES (pH 7.5), 2.4 mM NaHCO3, 0.41 mM CaCl2, 0.82 mM MgSO4, 0.3 mM Ca(NO3)2, 100 U/mL penicillin and 100 μg/mL streptomycin]. Electrophysiological recordings were performed 3 to 6 days after injection.” left out
as §2, with “The oocytes were continuously perfused with Ringer buffer, and the test compounds were applied in the perfusate. Experiments were performed at room temperature and each data point represents the mean ± S.E.M. value of recordings performed on at least two oocytes from at least two different batches of oocytes.” left out

human α1β2γ2S GABAAR = human α1β2γ2S GABAAR (Homo sapiens, UniProt P14867+P18507+P47870); parameters: expressed in transfected cells; host or cells: Xenopus laevis oocytes (cRNA injection, α:β2:γ2S 1:1:1)
Description: as §1, with “Following injection, the oocytes were incubated at 18°C in modified Barth’s solution [88 mM NaCl, 1 mM KCl, 15 mM HEPES (pH 7.5), 2.4 mM NaHCO3, 0.41 mM CaCl2, 0.82 mM MgSO4, 0.3 mM Ca(NO3)2, 100 U/mL penicillin and 100 μg/mL streptomycin]. Electrophysiological recordings were performed 3 to 6 days after injection.” left out
as §2, with “The oocytes were continuously perfused with Ringer buffer, and the test compounds were applied in the perfusate. Experiments were performed at room temperature and each data point represents the mean ± S.E.M. value of recordings performed on at least two oocytes from at least two different batches of oocytes.” left out

T3 sequence (P31644 32-462): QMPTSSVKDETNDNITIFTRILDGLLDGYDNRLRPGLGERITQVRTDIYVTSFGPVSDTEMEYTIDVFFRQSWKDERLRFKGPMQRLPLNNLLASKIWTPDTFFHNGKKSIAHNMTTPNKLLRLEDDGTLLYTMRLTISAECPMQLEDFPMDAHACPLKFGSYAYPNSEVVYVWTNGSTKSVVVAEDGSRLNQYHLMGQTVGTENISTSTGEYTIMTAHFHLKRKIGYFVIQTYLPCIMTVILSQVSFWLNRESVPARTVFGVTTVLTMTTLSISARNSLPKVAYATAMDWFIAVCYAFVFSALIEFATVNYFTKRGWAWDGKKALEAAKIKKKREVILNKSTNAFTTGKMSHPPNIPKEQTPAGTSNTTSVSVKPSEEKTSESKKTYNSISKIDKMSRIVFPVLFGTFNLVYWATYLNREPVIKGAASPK
T3 sequence (P47870 26-474 isoform P47870-1 limits assumed): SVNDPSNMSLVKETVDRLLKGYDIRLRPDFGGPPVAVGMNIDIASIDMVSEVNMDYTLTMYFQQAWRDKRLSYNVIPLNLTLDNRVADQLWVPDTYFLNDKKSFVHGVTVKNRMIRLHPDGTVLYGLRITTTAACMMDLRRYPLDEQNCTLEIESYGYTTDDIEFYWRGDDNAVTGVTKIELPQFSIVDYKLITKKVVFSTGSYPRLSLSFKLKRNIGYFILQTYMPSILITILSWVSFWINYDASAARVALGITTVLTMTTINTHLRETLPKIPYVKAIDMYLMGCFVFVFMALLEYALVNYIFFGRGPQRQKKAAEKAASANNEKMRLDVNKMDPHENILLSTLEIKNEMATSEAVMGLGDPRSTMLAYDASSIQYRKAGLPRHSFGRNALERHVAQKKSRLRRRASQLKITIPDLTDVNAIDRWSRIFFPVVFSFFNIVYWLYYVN
T3 sequence (P18507 40-467 isoform P18507-1 limits assumed): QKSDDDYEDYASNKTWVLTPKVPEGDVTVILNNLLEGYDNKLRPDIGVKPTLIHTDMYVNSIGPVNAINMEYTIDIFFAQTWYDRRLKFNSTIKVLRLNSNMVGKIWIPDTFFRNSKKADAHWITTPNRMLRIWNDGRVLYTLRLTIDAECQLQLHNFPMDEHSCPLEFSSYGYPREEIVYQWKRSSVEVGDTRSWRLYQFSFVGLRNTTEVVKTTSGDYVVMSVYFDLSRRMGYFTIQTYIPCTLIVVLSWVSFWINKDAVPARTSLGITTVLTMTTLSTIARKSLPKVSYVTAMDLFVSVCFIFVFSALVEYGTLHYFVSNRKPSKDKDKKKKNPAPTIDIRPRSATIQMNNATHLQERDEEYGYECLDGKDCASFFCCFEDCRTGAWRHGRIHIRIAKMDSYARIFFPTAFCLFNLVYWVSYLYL
T4 sequence (Q16445 20-453): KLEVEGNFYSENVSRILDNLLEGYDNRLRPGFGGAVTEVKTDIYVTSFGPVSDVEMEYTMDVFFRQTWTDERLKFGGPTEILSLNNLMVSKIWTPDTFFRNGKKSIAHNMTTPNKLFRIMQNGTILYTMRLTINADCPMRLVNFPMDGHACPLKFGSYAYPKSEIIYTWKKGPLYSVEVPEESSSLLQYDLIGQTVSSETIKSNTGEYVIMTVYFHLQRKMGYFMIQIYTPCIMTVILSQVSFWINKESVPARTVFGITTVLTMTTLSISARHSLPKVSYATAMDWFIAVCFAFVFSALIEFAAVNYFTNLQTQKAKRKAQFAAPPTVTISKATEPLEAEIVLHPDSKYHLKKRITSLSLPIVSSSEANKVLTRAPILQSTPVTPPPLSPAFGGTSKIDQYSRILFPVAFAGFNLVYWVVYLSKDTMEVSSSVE
T4 sequence (P47870 26-474 isoform P47870-1 limits assumed): as the sequence (P47870 26-474 isoform P47870-1 limits assumed) above
T1 sequence (P47869 29-451): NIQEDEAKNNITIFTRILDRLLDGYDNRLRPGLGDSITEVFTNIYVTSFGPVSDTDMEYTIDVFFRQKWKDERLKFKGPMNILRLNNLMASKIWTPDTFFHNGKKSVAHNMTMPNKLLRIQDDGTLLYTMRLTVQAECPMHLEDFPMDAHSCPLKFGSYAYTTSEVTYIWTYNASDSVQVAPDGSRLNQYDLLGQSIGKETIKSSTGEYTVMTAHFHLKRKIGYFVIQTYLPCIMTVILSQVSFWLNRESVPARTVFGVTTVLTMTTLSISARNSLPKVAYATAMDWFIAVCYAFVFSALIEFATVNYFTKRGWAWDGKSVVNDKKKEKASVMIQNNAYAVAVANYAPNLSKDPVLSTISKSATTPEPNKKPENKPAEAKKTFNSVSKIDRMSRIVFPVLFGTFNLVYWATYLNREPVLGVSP
T1 sequence (P47870 26-474 isoform P47870-1 limits assumed): as the sequence (P47870 26-474 isoform P47870-1 limits assumed) above
T1 sequence (P18507 40-467 isoform P18507-1 limits assumed): as the sequence (P18507 40-467 isoform P18507-1 limits assumed) above
Sequence of human α1β2γ2S GABAAR (P14867 28-456): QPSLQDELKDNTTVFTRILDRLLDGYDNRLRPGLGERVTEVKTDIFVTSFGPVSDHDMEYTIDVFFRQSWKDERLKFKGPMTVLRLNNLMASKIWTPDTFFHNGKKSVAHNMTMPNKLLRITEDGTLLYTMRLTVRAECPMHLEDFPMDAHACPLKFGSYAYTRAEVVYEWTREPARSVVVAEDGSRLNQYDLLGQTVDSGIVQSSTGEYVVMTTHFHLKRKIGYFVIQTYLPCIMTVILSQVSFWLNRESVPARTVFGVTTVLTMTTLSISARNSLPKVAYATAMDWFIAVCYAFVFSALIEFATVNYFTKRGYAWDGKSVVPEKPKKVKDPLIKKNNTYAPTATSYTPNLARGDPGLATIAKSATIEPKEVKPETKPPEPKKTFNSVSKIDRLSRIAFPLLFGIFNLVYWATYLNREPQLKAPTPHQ
Sequence of human α1β2γ2S GABAAR (P47870 26-474 isoform P47870-1 limits assumed): as the sequence (P47870 26-474 isoform P47870-1 limits assumed) above
Sequence of human α1β2γ2S GABAAR (P18507 40-467 isoform P18507-1 limits assumed): as the sequence (P18507 40-467 isoform P18507-1 limits assumed) above
T2 sequence (P34903 29-492): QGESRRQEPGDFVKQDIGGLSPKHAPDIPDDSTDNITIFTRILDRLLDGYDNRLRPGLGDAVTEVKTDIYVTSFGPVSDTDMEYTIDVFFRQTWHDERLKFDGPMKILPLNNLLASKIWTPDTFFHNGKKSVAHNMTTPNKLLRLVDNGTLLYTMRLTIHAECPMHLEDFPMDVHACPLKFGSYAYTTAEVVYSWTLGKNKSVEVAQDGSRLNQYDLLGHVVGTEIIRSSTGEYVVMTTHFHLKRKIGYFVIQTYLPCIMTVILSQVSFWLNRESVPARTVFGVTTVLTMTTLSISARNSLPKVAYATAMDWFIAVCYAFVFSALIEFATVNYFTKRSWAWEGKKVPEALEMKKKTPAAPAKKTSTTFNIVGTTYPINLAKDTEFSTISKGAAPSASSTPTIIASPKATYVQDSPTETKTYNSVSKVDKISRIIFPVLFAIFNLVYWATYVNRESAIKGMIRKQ
T2 sequence (P47870 26-474 isoform P47870-1 limits assumed): as the sequence (P47870 26-474 isoform P47870-1 limits assumed) above
T2 sequence (P18507 40-467 isoform P18507-1 limits assumed): as the sequence (P18507 40-467 isoform P18507-1 limits assumed) above

## NCCCC(=O)O [GABA, γ-aminobutyric acid]
Human α2β2γ2S GABAAR
  Hill slope nH ± S.E.M.: 1.44 ± 0.07
Human α3β2γ2S GABAAR
  Hill slope nH ± S.E.M.: 1.22 ± 0.05
Human α5β2γ2S GABAAR
  Hill slope nH ± S.E.M.: 1.19 ± 0.08
Human α6β2 GABAAR
  Hill slope nH ± S.E.M.: 0.89 ± 0.09
Human α1β2γ2S GABAAR
  Hill slope nH ± S.E.M.: 1.19 ± 0.05
